Assay type in all cases: cell-based
Test [1] relates to E. coli DH5α. The experiment in a line: Antibacterial activity: MIC and growth curve against E. coli DH5α in 96-well plate. Particulars: minimal inhibitory concentration against E. coli DH5α; 96-well plate, 5×10^5 CFU/mL, 37° C., judged after 8 h. Put shortly:
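Log-phase bacteria (OD600 ~0.5) resuspended in LB at 5×10^5 CFU/mL, exposed to recombinant protein at 50, 25, 12.5 μg/mL final in triplicate, 37 °C shaking at 175 rpm. OD600 read every 30 min; MIC is lowest concentration showing no growth.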

For test [2], the system named is E. coli BL21. Briefly: MIC against Gram-negative bacteria: E. coli BL21. To be noted: 5×10^5 CFU/mL. Put shortly:
(§1)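 Antibacterial activity of purified human EGF domain proteins: two-fold concentration series, triplicate wells, LB broth, 5×10^5 CFU/mL bacteria, 37° C shaking incubation. The lowest concentration without growth defines the MIC.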

Test [3] concerns Pseudomonas aeruginosa. Briefly: MIC against Gram-negative bacteria: Pseudomonas aeruginosa. Particulars: 5×10^5 CFU/mL. Put shortly: as §1
Test [4] concerns Klebsiella pneumonia. Briefly: MIC against Gram-negative bacteria: Klebsiella pneumonia. Particulars: 5×10^5 CFU/mL. In outline: as §1
Test [5] concerns Enterobacter cloacae. Briefly: MIC against Gram-negative bacteria: Enterobacter cloacae. To be noted: 5×10^5 CFU/mL. In outline:
as §1

Test [6] concerns Aeromonas hydrophila. The experiment in a line: MIC against Gram-negative bacteria: Aeromonas hydrophila. To be noted: 5×10^5 CFU/mL. Put shortly:
as §1

The subject of test [7] is Citrobacter diversus. The experiment in a line: MIC against Gram-negative bacteria: Citrobacter diversus. To be noted: 5×10^5 CFU/mL. In outline:
as §1

Test [8] deals with Moraxella catarrhalis. Briefly: MIC against Gram-negative bacteria: Moraxella catarrhalis. Particulars: 5×10^5 CFU/mL. In outline:
as §1

The test system of test [9] is Proteus mirabilis. The experiment in a line: MIC against Gram-negative bacteria: Proteus mirabilis. Particulars: 5×10^5 CFU/mL. In outline: as §1
The subject of test [10] is Proteus vulgaris. Briefly: MIC against Gram-negative bacteria: Proteus vulgaris. Particulars: 5×10^5 CFU/mL. Put shortly:
as §1

Test [11] has as its system Serratia marcescens. Briefly: MIC against Gram-negative bacteria: Serratia marcescens. To be noted: 5×10^5 CFU/mL. In outline: as §1
The mark [12] stands for this setting: 10 h cultivation at 37° C., two-fold serial dilution.

Substance “PRT708 (QYYVCHHYCVNSESCTIGDDGSVECVCPTRYEGPKCE; listed as Homo sapiens)” came in with an MIC in [1] of 50 µg/mL. In addition, the “MIC E. coli BL21” value in test [2] (96-well plate, 37° C., 10 h) turned out to be 25 µg/mL. The “MIC P. aeruginosa” value in [3] (96-well plate, 37° C., 10 h) came out at 50 µg/mL. Further, the “MIC K. pneumonia” value in test [4] (96-well plate, 37° C., 10 h) was determined as 25 µg/mL. Further, the “MIC E. cloacae” value in test [5] (96-well plate, 37° C., 10 h) is 50 µg/mL. For the same substance, in test [6] (96-well plate, 37° C., 10 h), the “MIC A. hydrophila” value worked out at 12.5 µg/mL. Besides, the “MIC C. diversus” value in [7] (96-well plate, 37° C., 10 h) stood at 50 µg/mL. The “MIC M. catarrhalis” value in [8] (96-well plate, 37° C., 10 h) amounted to 12.5 µg/mL. In addition, in [9] (96-well plate, 37° C., 10 h), the “MIC P. mirabilis” value came out at 50 µg/mL. Besides, the “MIC P. vulgaris” value in test [10] (96-well plate, 37° C., 10 h) stood at 12.5 µg/mL. The “MIC S. marcescens” value in test [11] (96-well plate, 37° C., 10 h) came to 50 µg/mL.
As for “PRT1156 (IIGQCQPHVCFHGNCSNITSNSFICECDEQFSGPFCE; listed as Homo sapiens)”, the MIC in [1] worked out at 50 µg/mL. The “MIC E. coli BL21” value in test [2] (setting [12]) is 25 µg/mL. For the same substance, the “MIC P. aeruginosa” value in test [3] (setting [12]) is 12.5 µg/mL. Moreover, in [4] (setting [12]), the “MIC K. pneumonia” value worked out at 25 µg/mL. Besides, the “MIC E. cloacae” value in test [5] (setting [12]) was 25 µg/mL. Moreover, in [6] (setting [12]), the “MIC A. hydrophila” value stood at 50 µg/mL. In [7] (setting [12]), the “MIC C. diversus” value is 25 µg/mL. For the same substance, the “MIC M. catarrhalis” value in test [8] (setting [12]) was found to be 12.5 µg/mL. Also, the “MIC P. mirabilis” value in [9] (setting [12]) is 50 µg/mL. For the same substance, the “MIC P. vulgaris” value in [10] (setting [12]) stood at 12.5 µg/mL. The “MIC S. marcescens” value in test [11] (setting [12]) came to 50 µg/mL.
As to “PRT137 (NPCQGSATCVNTPGERSFLCKCPPGYSGTICE; listed as Homo sapiens)”, the MIC in test [1] was determined as 25 µg/mL. In addition, the “MIC (μg/mL) E. coli BL21” value in test [2] (E. coli BL21, 96-well plate, 37° C., 10 h) was 12.5 µg/mL. Also, the “MIC (μg/mL) P. aeruginosa” value in [3] (Pseudomonas aeruginosa, 96-well plate, 37° C., 10 h) was 25 µg/mL. The “MIC (μg/mL) K. pneumonia” value in test [4] (Klebsiella pneumonia, 96-well plate, 37° C., 10 h) was 12.5 µg/mL. Besides, the “MIC (μg/mL) E. cloacae” value in [5] (Enterobacter cloacae, 96-well plate, 37° C., 10 h) is 25 µg/mL. In addition, the “MIC (μg/mL) A. hydrophila” value in [6] (Aeromonas hydrophila, 96-well plate, 37° C., 10 h) was 12.5 µg/mL. In addition, the “MIC (μg/mL) C. diversus” value in test [7] (Citrobacter diversus, 96-well plate, 37° C., 10 h) turned out to be 25 µg/mL. The “MIC (μg/mL) M. catarrhalis” value in [8] (Moraxella catarrhalis, 96-well plate, 37° C., 10 h) worked out at 12.5 µg/mL. Also, in test [9] (Proteus mirabilis, 96-well plate, 37° C., 10 h), the “MIC (μg/mL) P. mirabilis” value stood at 25 µg/mL. Further, the “MIC (μg/mL) P. vulgaris” value in test [10] (Proteus vulgaris, 96-well plate, 37° C., 10 h) amounted to 12.5 µg/mL. In addition, the “MIC (μg/mL) S. marcescens” value in [11] (Serratia marcescens, 96-well plate, 37° C., 10 h) was determined as 50 µg/mL.
“PRT634 (DIDECQHRHLCAHGQCRNTEGSFQCVCDQGYRASGLGDHCE; listed as Homo sapiens)”: in [1], the MIC came to 12.5 µg/mL. In addition, in test [2] (96-well plate, 37° C., 10 h), the “MIC E. coli BL21” value was determined as 25 µg/mL. In addition, in [3] (96-well plate, 37° C., 10 h), the “MIC P. aeruginosa” value is 50 µg/mL. In addition, the “MIC K. pneumonia” value in test [4] (96-well plate, 37° C., 10 h) was found to be 25 µg/mL. For the same substance, the “MIC E. cloacae” value in [5] (96-well plate, 37° C., 10 h) is 12.5 µg/mL. For the same substance, in test [6] (96-well plate, 37° C., 10 h), the “MIC A. hydrophila” value worked out at 25 µg/mL. In test [7] (96-well plate, 37° C., 10 h), the “MIC C. diversus” value was 12.5 µg/mL. For the same substance, in [8] (96-well plate, 37° C., 10 h), the “MIC M. catarrhalis” value is 25 µg/mL. Moreover, the “MIC P. mirabilis” value in test [9] (96-well plate, 37° C., 10 h) came to 25 µg/mL. In addition, the “MIC P. vulgaris” value in test [10] (96-well plate, 37° C., 10 h) was 12.5 µg/mL. The “MIC S. marcescens” value in test [11] (96-well plate, 37° C., 10 h) was 25 µg/mL.
In test [1], “PRT485 (QADPCKFLACGEFAQCVKNERTEEAECRCKPGYDSQGSL; listed as Homo sapiens)” yielded a minimal inhibitory concentration (MIC) of 50 µg/mL. In addition, the “MIC against E. coli BL21” value in test [2] (96-well plate, 37° C., 10 h) came to 12.5 µg/mL. The “MIC against P. aeruginosa” value in test [3] (96-well plate, 37° C., 10 h) amounted to 50 µg/mL. In test [4] (96-well plate, 37° C., 10 h), the “MIC against K. pneumonia” value amounted to 25 µg/mL. The “MIC against E. cloacae” value in test [5] (96-well plate, 37° C., 10 h) was 12.5 µg/mL. Further, the “MIC against A. hydrophila” value in [6] (96-well plate, 37° C., 10 h) came to 25 µg/mL. In addition, the “MIC against C. diversus” value in test [7] (96-well plate, 37° C., 10 h) worked out at 50 µg/mL. Further, the “MIC against M. catarrhalis” value in [8] (96-well plate, 37° C., 10 h) was found to be 25 µg/mL. The “MIC against P. mirabilis” value in [9] (96-well plate, 37° C., 10 h) worked out at 12.5 µg/mL. Besides, in test [10] (96-well plate, 37° C., 10 h), the “MIC against P. vulgaris” value was found to be 25 µg/mL. The “MIC against S. marcescens” value in test [11] (96-well plate, 37° C., 10 h) was 50 µg/mL.

As usually defined, the MIC is the least concentration at which growth counts as inhibited. Low readings indicate greater potency, high ones weaker potency.

The values are drawn from US9833497B2, “Human originated EGF domain proteins and use of the same” (CHENGDU SOURCEBIO LIMITED-LIABILITY COMPANY, priority 2013, dated 2017).
